From the NIST ThermoML archive (doi:10.1016/j.fluid.2014.04.015)
± gives the expanded uncertainty stated by the source.

Conditions: Liquid, Closed cell (Static) method

Compound | vapor or sublimation pressure (283.15 K) [kPa] | vapor or sublimation pressure (293.15 K) [kPa] | vapor or sublimation pressure (303.15 K) [kPa] | vapor or sublimation pressure (313.15 K) [kPa] | vapor or sublimation pressure (323.15 K) [kPa]
C=C(F)C(F)(F)F [2,3,3,3-tetrafluoro-1-propene] | 436.5 ± 7.1 | 591 ± 7.2 | 780.5 ± 7.4 | 1015.6 ± 7.6 | 1300.7 ± 7.9
CC(F)F [1,1-difluoroethane] | 374.8 ± 7 | 515.2 ± 7 | 692 ± 7.1 | 911.1 ± 7.1 | 1179.4 ± 7.2
